How the values were obtained:
SH2 Domain of STAT3 = biological target: T1, SH2 Domain of STAT3 (Homo sapiens, UniProt P40763); experiment: Phage display panning, 7-mer peptide library, on the SH2 domain of STAT3; assay type: binding
T1 construct: the SH2 domain of STAT3 is isolated as a target for screening 7-mer peptide phage display libraries; GST; made in house; host or cells: bacteria (E. coli)
From the text: Phage display peptide libraries are used because of two powerful features. First, phage libraries generate an enormous diversity of peptides that can be subjected to affinity selection by panning. […] These combinatorial libraries are based on random short peptide sequences fused to a coat protein of bacteriophage, herein pIII of the filamentous coliphage MI3. Panning of the peptide library using an immobilized target, herein STAT3 fusion proteins bound onto beads, is used to select for peptide sequences that bind to STAT3. […] Peptide sequences that occur at elevated frequencies are good candidates for ST4T3-specific binding peptides. […] These cyclic peptides have the advantage of reducing entropic freedom, thereby potentially increasing binding specificity and affinity relative to linear peptides. Another variation on this approach is to combine “affinity maturation” with the phage display peptide library [Scott & Smith, 1990, Science, 249:386-390].
For panning phage with the STAT3 fusion protein, 50 ul of glutathione-Sepharose beads bound to purified GST-Stat3 fusion protein are washed with phosphate buffered saline (PBS). The beads are then incubated with 10 ul of phage suspension (1.4×10^11 virions) in 200 ul final volume of PBS for 30 min at room temperature with occasional mixing. The beads are gently pelleted in a microcentrifuge, and washed 10 times with 1 ml of PBS to remove unbound phage. Background of non-specifically bound phage is reduced by a variety of methods, including pre-blocking the beads with bovine serum albumin, pre-clearing the phage library with GST-glutathione-Sepharose beads, and washing the beads with increasing salt concentrations. Bound phage virions are eluted from the beads by incubation with a molar excess of glutathione for 30 min at room temperature. A small aliquot of the phage eluate is titered and the rest is amplified on the E. coli ER2537 host strain. Following amplification, the phage are purified by polyethylene glycol (PEG) precipitation and then the titer is determined again. […]

STAT3 [1] = experiment: STAT3-specific luciferase reporter (pLucTKS3) induced by v-Src in NIH 3T3 fibroblasts; assay type: cell-based, mouse; details: for constitutive induction of the STAT3-dependent luciferase reporter: NIH 3T3/v-Src/TKS3 cells stably expressing reporter, 6 hours; for STAT3-specific luciferase reporter induction by v-Src: transiently transfected NIH 3T3 cells, inhibitor for 6 h
Method: NIH 3T3, NIH 3T3/v-Src and NIH 3T3/v-Ras fibroblasts are grown in Dulbecco's modified Eagle's medium (DMEM) containing 5% iron-supplemented bovine calf serum (BCS). Transient transfections are carried out by the standard calcium phosphate method as previously described (Turkson, et al., 1998, Mol. Cell. Biol. 18:2545-2552). NIH 3T3 fibroblasts are seeded at 5×10^5 cells/100-mm plate in DMEM plus 5% BCS at 18 to 24 hours prior to transfection. Total DNA for transfections is typically 20 μg per plate, including 4 μg of luciferase reporter construct (pLucTKS3), 0.2 μg of β-galactosidase (β-Gal) internal control vector, and the amounts of expression vector indicated in figure legends. Transfection is terminated 15 hours later by aspirating the medium, washing the cells with phosphate-buffered saline (PBS), and adding fresh DMEM. For generation of NIH 3T3/v-Src/TKS3 cell lines stably expressing the STAT3 reporter, NIH 3T3/v-Src cells are transfected using Fugene 6 (Boehringer Mannheim) according to the supplier's protocol. The transfection mixture contains 5.5 μg total DNA per 10 cm plate, including […] of the STAT3 reporter, pLucTKS3, and 0.5 μg of pcDNA3 that carries the neomycin resistance gene. Individual G418-resistant clones are picked and characterized with regard to STAT3-dependent luciferase activities.
(§1) In the case of stable NIH 3T3/v-Src/TKS3 clones, cells are treated with inhibitors or DMSO for 6 hours prior to preparing cytosolic extracts. For transient expression assays, cytosolic extracts are prepared from cells at 48 hours posttransfection as previously described (Turkson, et al., 1998, Mol. Cell. Biol. 18:2545-2552). Briefly, after two washes with PBS and equilibration for 5 min with 0.5 ml of PBS-0.5 mM EDTA, cells are scraped off the dishes and the cell pellet is obtained by centrifugation (4,500×g, 2 min, 4° C.). Cells are resuspended in 0.4 ml of low-salt HEPES buffer (10 mM HEPES [pH 7.8], 10 mM KCl, 0.1 mM EGTA, 0.1 mM EDTA, 1 mM phenylmethylsulfonyl fluoride, and 1 mM dithiothreitol) for 15 min, lysed by the addition of 20 μl of 10% Nonidet P-40 (NP-40), and centrifuged (10,000×g, 30 s, 4° C.) to obtain the cytosolic supernatant, which is used for luciferase assays (Promega) measured with a luminometer and for β-Gal activity detection by colorimetric assay at A570. As an internal control for transient transfection efficiency, results are normalized to β-Gal activity. For EMSA, nuclear extracts are prepared from transiently-transfected NIH 3T3 cells and volumes containing equal amounts of total protein are incubated with ^32P-labeled M67SIE oligonucleotide probe, as previously reported (Garcia, et al., 1997, Cell Growth Differ. 8:1267-1276, Yu, et al., 1995, Science 269:81-83). […]

STAT3 [2] = experiment: Western blot of STAT3 serine 727 phosphorylation in Src-transformed NIH 3T3 fibroblasts; assay type: cell-based, mouse; details: 6 hours
Method: (§2) Whole-cell lysates are prepared in boiling sodium dodecyl sulfate (SDS) sample-loading buffer in order to extract total proteins from the cytoplasm and nucleus as well as preserve the in vivo phosphorylation […]. Equivalent amounts of total cellular protein are electrophoresed on an SDS-10% polyacrylamide gel and transferred to nitrocellulose membranes. Probing of nitrocellulose membranes with primary antibodies and detection of horseradish peroxidase-conjugated secondary antibodies by enhanced chemiluminescence (Amersham) are performed as previously described (Garcia, et al., 1997, Cell Growth Differ. 8:1267-1276, Turkson, et al., 1998, Mol. Cell. Biol. 18:2545-2552, Yu, et al., 1995, Science 269:81-83). Probes used are rabbit polyclonal antibodies against […] amino acid residues (626-640) of STAT3 (Santa Cruz Biotechnology), phosphoserine-727 of STAT3 (25), active (phospho-) JNK, p38^mapk or ERKs (New England Biolabs), or total JNK, p38^mapk or ERKs (Santa Cruz Biotechnology).

STAT3 [3] = experiment: EMSA (M67SIE probe) of STAT3 DNA-binding activity in NIH 3T3 cells expressing v-Src; assay type: cell-based, mouse; details: v-Src-expressing NIH 3T3 cells, 6 hours
Method: as §1, with “activity.” for “activity. For EMSA, nuclear extracts are prepared from transiently-transfected NIH 3T3 cells and volumes containing equal amounts of total protein are incubated with ^32P-labeled M67SIE oligonucleotide probe, as previously reported (Garcia, et al., 1997, Cell Growth Differ. 8:1267-1276, Yu, et al., 1995, Science 269:81-83).”

p38, JNK1/2, ERK1/2 = experiment: Western blot of phosphorylated (activated) MAPKs in Src-transformed fibroblasts; assay type: cell-based, mouse
Method: as §2

[4] = test system: NIH 3T3/v-Src fibroblasts; experiment: Soft-agar colony formation of NIH 3T3/v-Src fibroblasts; assay type: cell-based, mouse; details: treated once weekly
Method: (§3) Colony formation assays are carried out in 6-well dishes. Each well contains 1.5 ml of 1% agarose in DMEM as the bottom layer. The top layer in each well consists of 1.5 ml of 0.5% agarose in DMEM containing 4,000 or 6,000 of NIH 3T3/v-Src or NIH 3T3/v-Ras fibroblasts, respectively. Treatment with inhibitors is initiated one day after seeding cells by adding 75-100 μl of medium with or without inhibitors and repeated once a week until formation of large colonies is evident. For quantitation, colonies are stained by adding 20 μl of 1 mg/ml iodonitrotetrazoliurn violet to each well and incubating at 37° C. overnight. Stained colonies are counted the next day.

[5] = test system: NIH 3T3/v-Ras fibroblasts; experiment: Soft-agar colony formation of NIH 3T3/v-Ras fibroblasts; assay type: cell-based, mouse; details: treated once weekly
Method: as §3

STAT3 [6] = experiment: EMSA of constitutive STAT3 DNA-binding activity in MDA-MB-468 breast carcinoma cells; assay type: cell-based, human; details: MDA-MB-468 cells; dose-dependent
Method: (§4) FIG. 6: Src and JAK Inhibitors Block Growth and STAT3 Activation in Breast Carcinoma Cells. MDA-MD-468 cells are treated with inhibitors of EGF receptor (PD158780), Src (PD180970), or JAKs (AG490), and effects on cell growth (Panel A) and STAT3 DNA-binding activity (Panel B) are determined.
STAT DNA-binding activity in human breast cancer cell lines is examined by electrophoretic mobility shift assays (EMSA) (Garcia et al., 1997, Cell Growth Diff. 8:1267-1276). In these experiments, EMSAs are performed using the ^32P-labeled sis-inducible element (SIE) as a probe to detect STAT DNA-binding activity in nuclear extracts of cells. This synthetic DNA oligonucleotide probe is a high-affinity mutant of the c-fos SIE, called hSIE, that binds both STAT1 and STAT3 (Yu, et al., 1995, Science 269:81-83). […] This activation is constitutive and occurs in the absence of exogenous EGF stimulation. By contrast, STAT3 activation is not detected in any of the three cell lines derived from normal breast tissue.
(§5) The involvement of these, and other, tyrosine kinases in STAT3 activation is tested using specific inhibitors of JAK family kinases, and the EGF receptor and Src family kinases.

MDA-MB-468 cells = experiment: Cell growth of MDA-MB-468 breast carcinoma cells; assay type: cell-based, human
Method: as §4, §5

T1 sequence (P40763 580-670 limits assumed): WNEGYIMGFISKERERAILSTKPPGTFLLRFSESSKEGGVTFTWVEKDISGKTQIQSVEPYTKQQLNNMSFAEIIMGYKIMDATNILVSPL

IQSPHFF (listed as Homo sapiens)
Frequency (out of 100 clones) (SH2 Domain of STAT3): 6%

COc1cccc(-c2cc(=O)c3ccccc3o2)c1N [PD98059]
constitutive induction of the STAT3-dependent luciferase reporter (STAT3 [1]): partially | STAT3-specific luciferase reporter induction by v-Src (STAT3 [1]): significantly suppresses | STAT3 serine phosphorylation (phosphoserine-727) (STAT3 [2]): blocks | STAT3 DNA-binding activity induced by v-Src (STAT3 [3]): no effect | basal ERKs activity (p38, JNK1/2, ERK1/2; Src-transformed fibroblasts): complete block | colony formation of Src-transformed cells in soft agar [4]: lack of significant effect | colony formation of Ras-transformed fibroblasts in soft agar [5]: lack of significant effect

Oc1ccc(-c2nc(-c3ccncc3)c(-c3ccc(F)cc3)[nH]2)cc1 [SB202190]
constitutive induction of the STAT3-dependent luciferase reporter (STAT3 [1]): completely | STAT3-specific luciferase reporter induction by v-Src (STAT3 [1]): significant inhibition | STAT3 serine phosphorylation (phosphoserine-727) (STAT3 [2]): blocks | STAT3 DNA-binding activity induced by v-Src (STAT3 [3]): no effect | phosphorylation of MAPK members, including p38 (p38, JNK1/2, ERK1/2; Src-transformed cells): does not significantly alter | colony formation of Src-transformed cells in soft agar [4]: completely blocks | colony formation of Ras-transformed fibroblasts in soft agar [5]: no significant effects

HAIYPRN (listed as Homo sapiens)
Frequency (out of 100 clones) (SH2 Domain of STAT3): 16%

ASTLPKA (listed as Homo sapiens)
Frequency (out of 100 clones) (SH2 Domain of STAT3): 7%

Cc1cc(Nc2ncc3cc(-c4c(Cl)cccc4Cl)c(=O)n(C)c3n2)ccc1F [PD180970]
constitutive STAT3 activation (STAT3 DNA-binding activity) (STAT3 [6]): effectively blocked | cell growth (MDA-MB-468 cells): inhibition of cell growth

CNc1cc2c(Nc3cccc(Br)c3)ncnc2cn1 [PD158780]
constitutive STAT3 activation (STAT3 DNA-binding activity) (STAT3 [6]): does not block | cell growth (MDA-MB-468 cells): not by the EGF receptor inhibitor
